Test results from ChEMBL document CHEMBL3286303, “Synthesis and in vitro antiproliferative evaluation of novel N-alkylated 6-isobutyl- and propyl pyrimidine derivatives” (Bioorg Med Chem Lett, 2014).
Activity calls are given as the source filed them. The rule behind the calls is not given here.

Experiments:
K562 [1] = experiment: Cell cycle arrest in human K562 cells as assessed as accumulation at G1 phase at 1 uM after 24 hrs by propidium iodide staining-based flow cytometric analysis relative to control; assay type: functional
K562 [2] = experiment: Cell cycle arrest in human K562 cells as assessed as accumulation at G2/M phase at 1 uM after 48 hrs by propidium iodide staining-based flow cytometric analysis relative to control; assay type: functional
SW-620 [3] = experiment: Cell cycle arrest in human SW620 cells as assessed as accumulation at G1 phase at 1 uM after 24 hrs by propidium iodide staining-based flow cytometric analysis relative to control; assay type: functional
K562 [4] = experiment: Cell cycle arrest in human K562 cells as assessed as accumulation at S phase at 0.1 uM after 48 hrs by propidium iodide staining-based flow cytometric analysis relative to control; assay type: functional
SW-620 [5] = experiment: Cell cycle arrest in human SW620 cells as assessed as accumulation at S phase at 0.1 uM after 48 hrs by propidium iodide staining-based flow cytometric analysis relative to control; assay type: functional
K562 [6] = experiment: Cell cycle arrest in human K562 cells as assessed as accumulation at sub-G1 phase at 0.5 uM after 24 hrs by propidium iodide staining-based flow cytometric analysis relative to control; assay type: functional
WI-38 [7] = experiment: Cell cycle arrest in human WI38 cells as assessed as accumulation at sub-G1 phase at 0.1 uM after 48 hrs by propidium iodide staining-based flow cytometric analysis relative to control; conditions: wi-38, 48 h
WI-38 [8] = experiment: Cell cycle arrest in human WI38 cells as assessed as accumulation at G2/M phase at 0.1 uM after 24 hrs by propidium iodide staining-based flow cytometric analysis relative to control; conditions: wi-38, 24 h
BJ = experiment: Antiproliferative activity against human BJ cells after 72 hrs by PrestoBlue colorimetric assay; assay type: cell-based
WI-38 [9] = experiment: Cell cycle arrest in human WI38 cells as assessed as accumulation at S phase at 0.1 uM after 48 hrs by propidium iodide staining-based flow cytometric analysis relative to control; conditions: wi-38, 48 h
HeLa [10] = experiment: Antiadhesive activity against human HeLa cells at 5 uM after 2 to 24 hrs by crystal-violet staining-based microscopic analysis; assay type: functional, cell-based
SW-620 [11] = experiment: Cell cycle arrest in human SW620 cells as assessed as accumulation at S phase at 1 uM after 48 hrs by propidium iodide staining-based flow cytometric analysis relative to control; assay type: functional
K562 [12] = experiment: Cell cycle arrest in human K562 cells as assessed as accumulation at G2/M phase at 0.1 uM after 48 hrs by propidium iodide staining-based flow cytometric analysis relative to control; assay type: functional
MCF7 [13] = experiment: Cell cycle arrest in human MCF7 cells as assessed as accumulation at sub-G1 phase at 1 uM after 24 hrs by propidium iodide staining-based flow cytometric analysis relative to control; assay type: functional
K562 [14] = experiment: Cell cycle arrest in human K562 cells as assessed as accumulation at G2/M phase at 0.5 uM after 24 hrs by propidium iodide staining-based flow cytometric analysis relative to control; assay type: functional
SW-620 [15] = experiment: Cell cycle arrest in human SW620 cells as assessed as accumulation at sub-G1 phase at 1 uM after 48 hrs by propidium iodide staining-based flow cytometric analysis relative to control; assay type: functional
HepG2 = experiment: Antiproliferative activity against human HepG2 cells after 72 hrs by MTT assay; assay type: functional, cell-based
K562 [16] = experiment: Cell cycle arrest in human K562 cells as assessed as accumulation at G2/M phase at 1 uM after 24 hrs by propidium iodide staining-based flow cytometric analysis relative to control; assay type: functional
SW-620 [17] = experiment: Cell cycle arrest in human SW620 cells as assessed as accumulation at G1 phase at 1 uM after 48 hrs by propidium iodide staining-based flow cytometric analysis relative to control; assay type: functional
WI-38 [18] = experiment: Cell cycle arrest in human WI38 cells as assessed as accumulation at S phase at 0.1 uM after 24 hrs by propidium iodide staining-based flow cytometric analysis relative to control; conditions: wi-38, 24 h
WI-38 [19] = experiment: Cell cycle arrest in human WI38 cells as assessed as accumulation at S phase at 1 uM after 48 hrs by propidium iodide staining-based flow cytometric analysis relative to control; conditions: wi-38, 48 h
MCF7 [20] = experiment: Cell cycle arrest in human MCF7 cells as assessed as accumulation at G2/M phase at 0.1 uM after 48 hrs by propidium iodide staining-based flow cytometric analysis relative to control; assay type: functional
K562 [21] = experiment: Cell cycle arrest in human K562 cells as assessed as accumulation at G1 phase at 0.1 uM after 24 hrs by propidium iodide staining-based flow cytometric analysis relative to control; assay type: functional
MCF7 [22] = experiment: Cell cycle arrest in human MCF7 cells as assessed as accumulation at G1 phase at 0.1 uM after 24 hrs by propidium iodide staining-based flow cytometric analysis relative to control; assay type: functional
HeLa [23] = experiment: Antiproliferative activity against human HeLa cells after 72 hrs by MTT assay; assay type: functional, cell-based
SW-620 [24] = experiment: Cell cycle arrest in human SW620 cells as assessed as accumulation at sub-G1 phase at 1 uM after 24 hrs by propidium iodide staining-based flow cytometric analysis relative to control; assay type: functional
SW-620 [25] = experiment: Antiproliferative activity against human SW620 cells after 72 hrs by MTT assay; assay type: functional, cell-based
K562 [26] = experiment: Cell cycle arrest in human K562 cells as assessed as accumulation at G1 phase at 0.5 uM after 48 hrs by propidium iodide staining-based flow cytometric analysis relative to control; assay type: functional
SW-620 [27] = experiment: Cell cycle arrest in human SW620 cells as assessed as accumulation at G2/M phase at 1 uM after 24 hrs by propidium iodide staining-based flow cytometric analysis relative to control; assay type: functional
K562 [28] = experiment: Cell cycle arrest in human K562 cells as assessed as accumulation at S phase at 1 uM after 48 hrs by propidium iodide staining-based flow cytometric analysis relative to control; assay type: functional
WI-38 [29] = experiment: Cell cycle arrest in human WI38 cells as assessed as accumulation at G1 phase at 0.1 uM after 24 hrs by propidium iodide staining-based flow cytometric analysis relative to control; conditions: wi-38, 24 h
MCF7 [30] = experiment: Antiadhesive activity against human MCF7 cells at 5 uM after 2 to 24 hrs by crystal-violet staining-based microscopic analysis; assay type: functional, cell-based
MCF7 [31] = experiment: Cell cycle arrest in human MCF7 cells as assessed as accumulation at S phase at 1 uM after 24 hrs by propidium iodide staining-based flow cytometric analysis relative to control; assay type: functional
K562 [32] = experiment: Cell cycle arrest in human K562 cells as assessed as accumulation at sub-G1 phase at 1 uM after 24 hrs by propidium iodide staining-based flow cytometric analysis relative to control; assay type: functional
K562 [33] = experiment: Cell cycle arrest in human K562 cells as assessed as accumulation at G1 phase at 0.5 uM after 24 hrs by propidium iodide staining-based flow cytometric analysis relative to control; assay type: functional
K562 [34] = experiment: Cell cycle arrest in human K562 cells as assessed as accumulation at S phase at 0.5 uM after 24 hrs by propidium iodide staining-based flow cytometric analysis relative to control; assay type: functional
WI-38 [35] = experiment: Cell cycle arrest in human WI38 cells as assessed as accumulation at G2/M phase at 1 uM after 48 hrs by propidium iodide staining-based flow cytometric analysis relative to control; conditions: wi-38, 48 h
MCF7 [36] = experiment: Cell cycle arrest in human MCF7 cells as assessed as accumulation at G1 phase at 1 uM after 48 hrs by propidium iodide staining-based flow cytometric analysis relative to control; assay type: functional

Compound: COCn1c(CC(COCc2ccccc2)COCc2ccccc2)c(C)c(=O)n(COC)c1=O
- Activity (K562 [1]): 53%
- Activity (K562 [2]): 17.4%
- Activity (SW-620 [3]): 55.9%
- Activity (K562 [4]): 24.1%
- Activity (SW-620 [5]): 25.6%
- Activity (K562 [6]): 3.3%
- Activity (WI-38 [7]): 38.5%
- Activity (WI-38 [8]): 6.9%
- IC50 (BJ): 5300 nM
- Activity (WI-38 [9]): 6.8%
- Activity (HeLa [10]): Active
- Activity (SW-620 [11]): 22%
- Activity (K562 [12]): 23.5%
- Activity (MCF7 [13]): 67.1%
- Activity (K562 [14]): 4.8%
- Activity (SW-620 [15]): 6.7%
- Activity (HepG2): Dose-dependent effect
- Activity (K562 [16]): 18.4%
- Activity (SW-620 [17]): 53.1%
- Activity (WI-38 [18]): 8.9%
- Activity (WI-38 [19]): 3.4%
- Activity (MCF7 [20]): 9.5%
- Activity (K562 [21]): 48.4%
- Activity (MCF7 [22]): 25.5%
- Activity (HeLa [23]): Dose-dependent effect
- IC50 (HeLa [23]): 300 nM
- Activity (SW-620 [24]): 5.2%
- Activity (SW-620 [25]): Dose-dependent effect
- IC50 (SW-620 [25]; SW-620, 72 h): 500 nM
- Activity (K562 [26]): 64.4%
- Activity (SW-620 [27]): 20.1%
- Activity (K562 [28]): 25.9%
- Activity (WI-38 [29]): 61.7%
- Activity (MCF7 [30]): Active
- Activity (MCF7 [31]): 8.1%
- Activity (K562 [32]): 3.1%
- Activity (K562 [33]): 85.8%
- Activity (K562 [34]): 5.6%
- Activity (WI-38 [35]): 3.5%
- Activity (MCF7 [36]): 11.5%
